In patent publication US6458778B1, “Estradienes” (Wyeth, priority 1997, dated 2002):
pKi: −log10 of the molar value.

Key:
Immature rats = test: In vivo uterotropic activity; details: for Uterine Weight (mg) ± SD: immature rats; for estrogenic activity in vivo (in words): uterine stimulation compared with vehicle
[1] = molecular target: T1, human estrogen receptor (hER-α) (Homo sapiens, UniProt P03372); test: Estrogen receptor binding, whole cell test procedure; details: Ki of 5B estimated
T1 sequence (P03372 1-595): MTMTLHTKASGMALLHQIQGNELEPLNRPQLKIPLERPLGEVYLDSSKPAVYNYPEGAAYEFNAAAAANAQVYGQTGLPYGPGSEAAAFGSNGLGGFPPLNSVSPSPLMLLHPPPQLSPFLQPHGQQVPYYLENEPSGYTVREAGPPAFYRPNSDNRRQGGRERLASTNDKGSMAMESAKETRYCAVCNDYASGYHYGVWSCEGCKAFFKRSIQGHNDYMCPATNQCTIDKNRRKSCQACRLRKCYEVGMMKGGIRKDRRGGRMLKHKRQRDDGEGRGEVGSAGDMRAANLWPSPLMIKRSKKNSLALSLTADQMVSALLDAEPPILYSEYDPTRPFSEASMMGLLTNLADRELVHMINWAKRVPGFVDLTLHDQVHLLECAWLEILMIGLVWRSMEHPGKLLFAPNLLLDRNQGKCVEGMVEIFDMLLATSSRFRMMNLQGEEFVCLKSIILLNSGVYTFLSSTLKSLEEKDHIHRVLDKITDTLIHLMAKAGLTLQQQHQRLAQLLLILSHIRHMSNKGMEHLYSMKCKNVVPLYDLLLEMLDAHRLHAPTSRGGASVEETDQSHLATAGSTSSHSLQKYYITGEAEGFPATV

With `C[C@]12CC[C@H]3C(=CCC4=C3CC[C@@H](O)C4)[C@@H]1CCC2=O` [5A, estra-5(10),7-dien-3α-ol-17-one] the “Uterine Weight (mg) ± SD” value (Immature rats; 1 μg, three days S.C.) was 28.7 ± 2.7 mg, the “Uterine Weight (mg) ± SD” value (Immature rats; 10 μg, three days S.C.) was 33.3 ± 4.4 mg and the “Uterine Weight (mg) ± SD” value (Immature rats; 100 μg, three days S.C.) was 66.5 ± 4.7 mg. The “Uterine Weight (mg) ± SD” value (Immature rats; 500 μg, three days S.C.) was 78.9 ± 13.6 mg, the “estimated EC50 compared with 5B” value (Immature rats; in words, relative to approximately 30 μg/rat or 0.6 mg/kg for 5B) was “somewhat lower” and the “estrogenic activity in vivo (in words)” value (Immature rats) was “significant estrogenic activity”.
In the case of `C[C@]12CCc3c(ccc4cc(O)ccc34)[C@@H]1CCC2=O` [equilenen], the pKi [1] was 6.43.
Compound `C[C@]12CC[C@@H]3c4ccc(O)cc4CC[C@H]3[C@@H]1CCC2=O` [estrone, reference compound] has an EC50 estimated (Immature rats; in similar test procedures) of 0.2 mg/kg.
`C[C@]12CC[C@H]3C(=CCC4=C3CC[C@H](O)C4)[C@@H]1CCC2=O` [5B, estra-5(10),7-dien-3β-ol-17-one] was tested, and the “Uterine Weight (mg) ± SD” value (Immature rats; 0.1 μg, three days S.C.) was 34.1 ± 6.2 mg, the “Uterine Weight (mg) ± SD” value (Immature rats; 1 μg, three days S.C.) was 31.7 ± 6.6 mg and the “Uterine Weight (mg) ± SD” value (Immature rats; 10 μg, three days S.C.) was 43.5 ± 6.9 mg. For the same compound, the “Uterine Weight (mg) ± SD” value (Immature rats; 100 μg, three days S.C.) was 79.7 ± 5.8 mg, the “Uterine Weight (mg) ± SD” value (Immature rats; 500 μg, three days S.C.) was 82.6 ± 8.6 mg and the “estrogenic activity in vivo (in words)” value (Immature rats) was “significant estrogenic activity”.
For `C#C[C@]1(O)CC[C@H]2[C@@H]3CCc4cc(O)ccc4[C@H]3CC[C@@]21C` [Ethinyl Estradiol, ethinyl estradiol, reference compound], the “Uterine Weight (mg) ± SD” value (Immature rats; 0.5 μg, three days, positive control) was 101.2 ± 2.8 mg.
